From patent US20090062255A1, “TUMOR-TARGETING EVALUATION METHODOLOGY AND COMPOUNDS RELATED THERETO” (THALLION PHARMACEUTICALS INC., priority 2007, published 2009)
Values joined by “and” are separate entries in the source; they are usually repeats but may differ in a detail not shown here. Identical values can stand only once. “Also recorded” adds a separate entry of the source.

How the values were obtained:
[1] = ECO-4601 concentrations in plasma and tissues, rat C6 orthotopic brain tumors; format: in vivo; conditions: individual rats
Procedure: Rat C6 glioma cells were purchased from the American Type Culture Collection (Manessa, Va.) and grown in Dulbecco's modified Eagle's medium (DMEM) supplemented with 10% FBS, 125 U/mL penicillin G, 125 μg/mL streptomycin sulfate, and 2.2 μg/mL amphotericin B (Fungizone). All culture reagents were obtained from Gibco BRL (Invitrogen Burlington, ON, Canada). Cultures were grown in monolayers and maintained at 37° C. in a humidified atmosphere of 5% CO2. Upon reaching confluency, spheroids were prepared using the hanging drop method previously described by Del Duca et al. ((2004) J. Neurooncol 67, p 295). Briefly, 20 μl drops of DMEM containing 15,000 cells each were suspended from the lids of culture dishes and the resulting aggregates were transferred to culture dishes base-coated with agar after 72 hours. The resulting spheroids were adequate for in vivo implantation after 48 hours of incubation on agar.
Male, Sprague-Dawley rats (250-300 g) (Charles River Canada, St Constant, QC) were anesthetized with 50 mg/kg ketamine and 10 mg/kg xylazine. The right cortical surface in the parietal-occipital region was exposed by craniectomy using a high-powered drill (DREMEL, USA) and the underlying dura and its vessels were carefully removed under a surgical microscope. A piece of the cortex was removed to expose the underlying white matter and a single speroid containing rat C6 tumor cells was placed into the surgical defect. The craniectomy was covered with bone wax (Ethicon, Peterborough, Canada) and the overlying skin sutured. Following recovery from anesthesia, the animals were fed and had access to water ad libitum.
Following completion of in vivo studies, animals were sacrificed by anesthetic overdose and decapitated. Brain, tumor, and liver were snap-frozen in liquid nitrogen and stored frozen (−70° C.±10° C.). For blood samples, each blood sample was collected into a K2-EDTA tube and kept on wet ice for a maximum of 30 minutes. Blood samples were centrifuged under refrigeration (2 to 8° C.) for 10 minutes at 1,500 g (RCF). A volume of 25 μL of aqueous 4% w/v L-ascorbic acid was added to a volume of 225 μL of rat plasma in a clean tube, and the samples were thoroughly mixed by inversion. A volume of 125 uL of the resulting mixture was transferred to a separate tube for bioanalysis, while the remaining mixture was maintained as a backup, and both the bioanalysis and back-up portions were frozen on dry ice and stored frozen (−70° C.±10° C.).
Rat plasma (50 μL) was mixed with 500 μL of acetone containing 100 ng/mL of the internal standard (Compound 2). The mixture was vortexed for 20 seconds, incubated 10 min at RT and centrifuged at 12,000×g for 10 minutes. The supernatants were transferred into HPLC injection vials and 20 μL were analyzed by tandem liquid chromatography/mass spectrometry. The chromatography was achieved on a Luna C18 column (30×4.6 mm, 5 μm particles; Phenomenex, Torrance, Calif.) with a mobile phase consisting of 100% methanol: 0.5% formic acid in water (85:15) at a flow rate of 1 mL/min. Flow was split 1:10 prior to introduction into the ESI source. The nebulization was assisted by and octagonal jet stream of nitrogen heated at […] and set at a flow of 4 L/min. The ion source voltage (ISV) was at 4000 V in positive mode, declustering potential (OR-QO) was set to 20 V, and the collision energy (Elab) was set to 25 V. The mass transition monitered for ECO-4601 and the internal standard were m/z 463→271 and 477→273, respectively. […]

[2] = system: prenylation of Ras, RAP1A and HDJ2 (FTase, GGTase I); assay: Protein prenylation immunoblot (FTase and GGTase I activities) in MCF-7 cells; format: cell-based, human; conditions: MCF7 cells, 3, 10 and 30 μM, 24 h; listed as ECO-4601
Procedure: It was first verified if ECO-4601 interferes with Ras processing by monitoring FTase and GGTase I activities by immunoblot analysis. For these experiments, exponentially growing MCF-7 (human breast tumor) cells were seeded in 60 mm cell culture dishes at a density of 2.5×10^6 cells per dish. After an 18 h incubation period, ECO-4601 or lovastatin (Sigma-Aldrich, St. Louis, Mo.) were added at a final concentration of 3, 10 and 30 μM for 24 h. Cells were also treated with the vehicle alone (0.05% DMSO) for the same incubation periods. Treated and control cells were lysed in ice-cold RIPA buffer (50 mM Tris-HCl pH 7.4, 1% Triton X-100, 1% deoxycholate, 0.1% SDS, 150 mM NaCl, and 1 mM EDTA) containing protease inhibitors (Roche, Mannheim, Germany) and phosphatase inhibitors (EMD Biosciences, Calbiochem, San Diego, Calif.) for 20 minutes on ice. After lysis, cell debris was removed by centrifugation at 12000×g for 10 min. […] Bound antibodies were detected using horseradish peroxidase-conjugated secondary antibodies (Jackson ImmunoResearch Laboratories Inc., West Grove, Pa.) for 1 h at room temperature in 0.5% skim milk-TBS, visualized by treating the membranes with enhanced chemiluminescence reagents (Millipore, Mississauga, ON, Canada) and exposing them to BioMax Light Films (Kodak, Mississauga, ON, Canada). […]

## CC(C)=CCC/C(C)=C/CC/C(C)=C/CN1C(=O)c2cccc(O)c2Nc2c(O)cc(O)cc21 [Compound 1, 10-farnesyl-4,6,8-trihydroxy-5,10-dihydrodibenzo[b,e][1,4]diazepin-11-one]
[1]
  Ratio Tumor/Brain: 10.1 and 2.1 and 5.2 and 11.30 and 3.5
  Tumor: 2701 ng/g and 239 ng/g and 509 ng/g and 2891 ng/g and 1145 ng/g
[1]; C6 orthotopic brain tumor
  Brain: 249 ng/g and 115 ng/g and 98 ng/g and 254 ng/g and 327 ng/g
  Liver: 994 ng/g and 164 ng/g and 1083 ng/g and 2767 ng/g and 123 ng/g
  Pasma ng/mL: 13,088 ng/mL and 2,657 ng/mL and 5,727 ng/mL and 10,212 ng/mL and 1,177 ng/mL
[2]
  effect on protein prenylation (mobility shift of Ras, RAP1A and HDJ2): does not inhibit protein prenylation; also recorded: no effect
